Reference: patent publication US20190111055A1, “USE OF PHARMACEUTICAL COMPOSITION FOR THE TREATMENT OF SKIN ERYTHEMA IN POIKILODERMAS” (priority 2016, published 2019)

What was measured:
[1] = test system: skin lesions of Poikiloderma of Civatte
Description: FIG. 1 represents the delimited area of the patient's skin to be treated with a composition described in this document, containing an alpha-adrenergic agonist, namely brimonidine gel 0.33%, prior to applying the medicine.
FIG. 2 represents the area of the patient's skin to be treated with the composition mentioned above, immediately after applying the medicine.
Drawing 1 represents the area selected and marked with white pencil for applying a product containing the alpha-adrenergic agonist brimonidine at 0.33% on skin lesions of Poikiloderma of Civatte; this drawing represents the area prior to application. Drawing 2 represents the moment immediately after applying the composition, which was restricted to the small area marked on the skin of the patient.

[2] = clinical studies for acute erythema or diseases such as rosacea; cited from earlier work

## Brc1c(NC2=NCCN2)ccc2nccnc12 [brimonidine]
[1]; brimonidine at 0.33%, topical, marked skin area, 40 minutes after applying
  color of the skin affected by Poikiloderma of Civatte: effective improvement in the color of the skin
[1]; topical application of the product
  redness of the Poikiloderma of Civatte erythema: visibly improves the redness
[2]
  adverse events (most common: erythema, redness, burning sensation, contact dermatitis): less than or equal to 1%
